Source: patent US8003785B2 (Takeda Pharmaceutical Company Limited, priority 2008, dated 2011)

Target: T1, PLK1 (Homo sapiens, UniProt P53350)
T1 construct: Full-length, active GST-PLK1 is purified from Sf9 insect cells; made in house; host or cells: Sf9 insect cells
Assay: Biochemical Characterization Assay: HTRF kinase assay, GST-PLK1 phosphorylation of GST-p53
Conditions: GST-PLK1, GST-p53 substrate, ATP
Method in brief: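 Full-length active GST-PLK1 (Sf9, 3 ug/mL) phosphorylated full-length GST-p53 (E. coli) in Kinase Assay Buffer for 35 min at 37 °C. Stopped with EDTA; phospho-p53 detected by HTRF with anti-phospho-p53, Eu-anti-rabbit and APC-anti-GST antibodies.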

T1 sequence (P53350 whole entry): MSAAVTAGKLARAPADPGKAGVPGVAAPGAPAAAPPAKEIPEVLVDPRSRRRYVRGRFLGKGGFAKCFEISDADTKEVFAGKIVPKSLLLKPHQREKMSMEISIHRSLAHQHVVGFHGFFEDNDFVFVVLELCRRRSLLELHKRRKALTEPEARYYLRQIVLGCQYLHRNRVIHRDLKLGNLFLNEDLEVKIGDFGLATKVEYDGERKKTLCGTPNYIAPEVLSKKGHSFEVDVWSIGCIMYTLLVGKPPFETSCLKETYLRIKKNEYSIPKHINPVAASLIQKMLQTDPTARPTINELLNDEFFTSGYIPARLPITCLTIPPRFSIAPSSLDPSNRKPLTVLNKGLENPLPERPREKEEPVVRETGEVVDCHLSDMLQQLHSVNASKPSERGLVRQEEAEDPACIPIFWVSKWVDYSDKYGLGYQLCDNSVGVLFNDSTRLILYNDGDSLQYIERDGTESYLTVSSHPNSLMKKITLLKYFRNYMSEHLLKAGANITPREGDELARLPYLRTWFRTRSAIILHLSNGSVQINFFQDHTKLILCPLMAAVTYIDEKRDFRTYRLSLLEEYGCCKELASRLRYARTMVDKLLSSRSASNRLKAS

Structure (SMILES) | IC50 [nM]
COc1cc(C(=O)N[C@@H]2CN3CCC2CC3)ccc1Nc1ncc2c(n1)N(C1CCCC1)CC(F)(F)C(=O)N2C [Example I-107, N—(S)-1-aza-bicyclo[2.2.2]oct-3-yl-4-(9-cyclopentyl-7,7-difluoro-5-methyl-6-oxo-6,7,8,9-tetrahydro-5H-pyrimido[4,5-b][1,4]diazepin-2-ylamino)-3-methoxy-benzamide] | 1 to 50
COc1cc(C(=O)NC2CCN(c3ccccn3)CC2)ccc1Nc1ncc2c(n1)N(C1CCCC1)CC(F)(F)C(=O)N2C [Example I-108, 4-(9-cyclopentyl-7,7-difluoro-5-methyl-6-oxo-6,7,8,9-tetrahydro-5H-pyrimido[4,5-b][1,4]diazepin-2-ylamino)-3-methoxy-N-(3,4,5,6-tetrahydro-2H-[1,2′]bipyridinyl-4-yl)-benzamide] | 1 to 50
COc1cc(C(=O)NCc2ccccn2)ccc1Nc1ncc2c(n1)N(C1CCCC1)CC(F)(F)C(=O)N2C [Example I-109, 4-(9-cyclopentyl-7,7-difluoro-5-methyl-6-oxo-6,7,8,9-tetrahydro-5H-pyrimido[4,5-b][1,4]diazepin-2-ylamino)-3-methoxy-N-pyridin-2-ylmethyl-benzamide] | 1 to 50
COc1cc(C(=O)NCCCN2CCCCC2C)ccc1Nc1ncc2c(n1)N(C1CCCC1)CC(F)(F)C(=O)N2C (stereo not shown) [Example I-110, 4-(9-cyclopentyl-7,7-difluoro-5-methyl-6-oxo-6,7,8,9-tetrahydro-5H-pyrimido[4,5-b][1,4]diazepin-2-ylamino)-3-methoxy-N-[3-(2-methyl-piperidin-1-yl)-propyl]-benzamide] | 1 to 50
COc1cc(C(=O)NCc2cccnc2)ccc1Nc1ncc2c(n1)N(C1CCCC1)CC(F)(F)C(=O)N2C [Example I-111, 4-(9-cyclopentyl-7,7-difluoro-5-methyl-6-oxo-6,7,8,9-tetrahydro-5H-pyrimido[4,5-b][1,4]diazepin-2-ylamino)-3-methoxy-N-pyridin-3-yl-methyl benzamide] | 1 to 50
COc1cc(C(=O)NCCC2CCCN2C)ccc1Nc1ncc2c(n1)N(C1CCCC1)CC(F)(F)C(=O)N2C (stereo not shown) [Example I-112, 4-(9-cyclopentyl-7,7-difluoro-5-methyl-6-oxo-6,7,8,9-tetrahydro-5H-pyrimido[4,5-b][1,4]diazepin-2-ylamino)-3-methoxy-N-[2-(1-methyl-pyrrolidin-2-yl)-ethyl]-benzamide] | 1 to 50
COc1cc(C(=O)NCCCN2CCCC2=O)ccc1Nc1ncc2c(n1)N(C1CCCC1)CC(F)(F)C(=O)N2C [Example I-113, 4-(9-cyclopentyl-7,7-difluoro-5-methyl-6-oxo-6,7,8,9-tetrahydro-5H-pyrimido[4,5-b][1,4]diazepin-2-ylamino)-3-methoxy-N-[3-(2-oxo-pyrrolidin-1-yl)-propyl]-benzamide] | 1 to 50
COc1cc(C(=O)NCCN2CCCCC2)ccc1Nc1ncc2c(n1)N(C1CCCC1)CC(F)(F)C(=O)N2C [Example I-114, 4-(9-cyclopentyl-7,7-difluoro-5-methyl-6-oxo-6,7,8,9-tetrahydro-5H-pyrimido[4,5-b][1,4]diazepin-2-ylamino)-3-methoxy-N-(2-piperidin-1-yl-ethyl)-benzamide] | 1 to 50
COc1cc(C(=O)NN2CCCCC2)ccc1Nc1ncc2c(n1)N(C1CCCC1)CC(F)(F)C(=O)N2C [Example I-115, 4-(9-cyclopentyl-7,7-difluoro-5-methyl-6-oxo-6,7,8,9-tetrahydro-5H-pyrimido[4,5-b][1,4]diazepin-2-ylamino)-3-methoxy-N-piperidin-1-yl-benzamide] | 1 to 50
COc1cc(C(=O)NCCc2ccccn2)ccc1Nc1ncc2c(n1)N(C1CCCC1)CC(F)(F)C(=O)N2C [Example I-116, 4-(9-cyclopentyl-7,7-difluoro-5-methyl-6-oxo-6,7,8,9-tetrahydro-5H-pyrimido[4,5-b][1,4]diazepin-2-ylamino)-3-methoxy-N-(2-pyridin-2-yl-ethyl)-benzamide] | 1 to 50
COc1cc(C(=O)NCCN2CCOCC2)ccc1Nc1ncc2c(n1)N(C1CCCC1)CC(F)(F)C(=O)N2C [Example I-117, 4-(9-cyclopentyl-7,7-difluoro-5-methyl-6-oxo-6,7,8,9-tetrahydro-5H-pyrimido[4,5-b][1,4]diazepin-2-ylamino)-3-methoxy-N-(2-morpholin-4-yl-ethyl)-benzamide] | 1 to 50
COc1cc(C(=O)NN2CCN(C)CC2)ccc1Nc1ncc2c(n1)N(C1CCCC1)CC(F)(F)C(=O)N2C [Example I-118, 4-(9-cyclopentyl-7,7-difluoro-5-methyl-6-oxo-6,7,8,9-tetrahydro-5H-pyrimido[4,5-b][1,4]diazepin-2-ylamino)-3-methoxy-N-(4-methyl-piperazin-1-yl) benzamide] | 1 to 50
COc1cc(C(=O)NCCNc2ccccc2)ccc1Nc1ncc2c(n1)N(C1CCCC1)CC(F)(F)C(=O)N2C [Example I-119, 4-(9-cyclopentyl-7,7-difluoro-5-methyl-6-oxo-6,7,8,9-tetrahydro-5H-pyrimido[4,5-b][1,4]diazepin-2-ylamino)-3-methoxy-N-(2-phenylamino-ethyl)-benzamide] | 51 to 500
COc1cc(C(=O)NCC(O)CN2CCN(C(=O)OC(C)(C)C)CC2)ccc1Nc1ncc2c(n1)N(C1CCCC1)CC(F)(F)C(=O)N2C (stereo not shown) [Example I-120, 4-{3-[4-(9-cyclopentyl-7,7-difluoro-5-methyl-6-oxo-6,7,8,9-tetrahydro-5H-pyrimido[4,5-b][1,4]diazepin-2-ylamino)-3-methoxy-benzoylamino]-2-hydroxy-propyl}-piperazine-1-carboxylic acid tert-butyl ester] | 51 to 500
COc1cc(C(=O)NCC(O)CN2CCNCC2)ccc1Nc1ncc2c(n1)N(C1CCCC1)CC(F)(F)C(=O)N2C (stereo not shown) [Example I-121, 4-(9-cyclopentyl-7,7-difluoro-5-methyl-6-oxo-6,7,8,9-tetrahydro-5H-pyrimido[4,5-b][1,4]diazepin-2-ylamino)-N-(2-hydroxy-3-piperazin-1-yl-propyl)-3-methoxy-benzamide] | 1 to 50
COc1cc(C(=O)NC2CCN(Cc3ccccc3)CC2)ccc1Nc1ncc2c(n1)N(C1CCCC1)CC(F)(F)C(=O)N2C [Example I-122, N-(1-benzyl-piperidin-4-yl)-4-(9-cyclopentyl-7,7-difluoro-5-methyl-6-oxo-6,7,8,9-tetrahydro-5H-pyrimido[4,5-b][1,4]diazepin-2-ylamino)-3-methoxy-benzamide] | 1 to 50
CCN(CC)CCCNC(=O)c1ccc(Nc2ncc3c(n2)N(C2CCCC2)CC(F)(F)C(=O)N3C)c(OC)c1 [Example I-123, 4-(9-cyclopentyl-7,7-difluoro-5-methyl-6-oxo-6,7,8,9-tetrahydro-5H-pyrimido[4,5-b][1,4]diazepin-2-ylamino)-N-(3-diethylamino-propyl)-3-methoxy-benzamide] | 1 to 50
COc1cc(C(=O)NC2CCOCC2)ccc1Nc1ncc2c(n1)N(C1CCCC1)CC(F)(F)C(=O)N2C [Example I-124] | 1 to 50
COc1cc(C(=O)N(C)C)ccc1Nc1ncc2c(n1)N(C1CCCC1)CC(F)(F)C(=O)N2C [Example I-125, 4-(9-cyclopentyl-7,7-difluoro-5-methyl-6-oxo-6,7,8,9-tetrahydro-5H-pyrimido[4,5-b][1,4]diazepin-2-ylamino)-3-methoxy-N,N-dimethyl-benzamide] | 1 to 50
